“Also recorded” adds a separate entry of the source. No end group written: not given here.
Key:
[1] = test system: Piezo2; assay: Bilateral ACL-injury mouse model: Piezo2 expression in CGRP+ pain nerves; assay type: in vivo; conditions: ACL-I mice, GsMTx4 post-injury, versus saline-treated ACL-I mice
Description: Some of the studies reported below involved a murine model of animals which were subjected to trauma by injuring an ACL (as an exemplar of injury to any of the four knee ligaments). Without wishing to be bound by theory, it is believed that injury to the ACL changes the mechanical loading on the joint, promoting imbalanced metabolism in articular cartilage, and promoting the development of post-traumatic OA, or “PTOA.” Animals were divided into four cohorts: the first group, the controls, were not subjected to trauma, the second group underwent bilateral ACL injury, but no further treatment, the third group underwent bilateral ACL injury, and was then administered saline solution at days 3, 10 and 17 post-injury, and the fourth group underwent bilateral ACL injury, and was then administered GsMTx4 peptide at days 3, 10 and 17 post-injury. The animals were evaluated by gait analysis, a cell vulnerability assay, and a histological evaluation/immunofluorescence assay. In one aspect, the assays compared the expression of Piezo1 and Piezo2 in chondrocytes from injured joints, from uninjured controls, and from injured joints injured and then treated with GsMTx4 and from joints that were injured and then treated only with saline solution. The study also looked at calcitonin gene-related peptide (“CGRP”)-containing (“CGRP^+”) nerve endings. […]

[2] = test system: C57BL/6 mice; assay: Bilateral ACL-injury mouse model: knee histology, OARSI score; assay type: in vivo
Description: Some of the studies reported below involved a murine model of animals which were subjected to trauma by injuring an ACL (as an exemplar of injury to any of the four knee ligaments). Without wishing to be bound by theory, it is believed that injury to the ACL changes the mechanical loading on the joint, promoting imbalanced metabolism in articular cartilage, and promoting the development of post-traumatic OA, or “PTOA.” Animals were divided into four cohorts: the first group, the controls, were not subjected to trauma, the second group underwent bilateral ACL injury, but no further treatment, the third group underwent bilateral ACL injury, and was then administered saline solution at days 3, 10 and 17 post-injury, and the fourth group underwent bilateral ACL injury, and was then administered GsMTx4 peptide at days 3, 10 and 17 post-injury. The animals were evaluated by gait analysis, a cell vulnerability assay, and a histological evaluation/immunofluorescence assay. In one aspect, the assays compared the expression of Piezo1 and Piezo2 in chondrocytes from injured joints, from uninjured controls, and from injured joints injured and then treated with GsMTx4 and from joints that were injured and then treated only with saline solution. The study also looked at calcitonin gene-related peptide (“CGRP”)-containing (“CGRP^+”) nerve endings. CGRP^+ nerves have been identified as principal coordinators of thermal and mechanical sensitivity in various pain models. See, e.g., Powell, et al., Nat Commun 12, 5812 (2021); doi.org/10.1038/s41467-021-26100-6.
Experiments were performed in a non-invasive ACL-injury mouse model. […] Both male and female mice were used in the four groups and results were tracked by gender as well as by group.
Animals in the ACL-injury groups were provided with buprenorphine as an analgesic, placed under anesthesia by isoflurane inhalation, and had the injuries induced with a custom-built strain gauge-instrumented device by applying axial force along the femoral shaft until a force drop was felt and a distinct “pop” sound was heard. […]

“GsMTx4 (GCLEFWWKCNPNDDKCCRPKLKCSKLFKLCNFSF-NH2; ends and bridges not checked; listed as Grammostola spatulata)” was tested, and the “Piezo2 expression in CGRP^+ pain nerves” value [1] was “decreased Piezo2 expression in CGRP^+ pain nerves”, the “OA severity (OARSI score)” value ([2]; ACL-I mice, GsMTx4 at days 3, 10, 17 post-injury, 3 weeks post-ACL-I, versus saline-treated ACL-I mice) was “reduced OARSI score; also recorded: decreased OA degrees significantly” and the “combined OARSI score for the femur and the tibia (FIG. 2B)” value ([2]; bilateral ACL injury, subcutaneous injection, versus not treated or saline-treated animals) was “much lower OARSI score”. The “cartilage on femur and tibia (histology, FIG. 2A)” value ([2]; bilateral ACL injury, versus saline-injected mouse (cartilage severely eroded and disrupted)) was “still a layer of cartilage almost all of the femur and tibial surface”.
